Source: patent publication US11787796B2, “Plasma Kallikrein inhibitors and uses thereof” (Takeda Pharmaceutical Company Limited, priority 2019, dated 2023)

Each compound was assayed against human activated kallikrein enzyme (Homo sapiens (Human), UniProt P03952) (assay: Plasma kallikrein inhibition assay with fluorogenic peptide substrate, 500 pM activated kallikrein format). Conditions: 500 pM activated kallikrein; 300 uM Pro-Phe-Arg-7-amido-4-methylcoumarin substrate; 30 min preincubation, 10 min reaction at RT; read-out: Primary Dose Response Assay: Average EC50.
human activated kallikrein enzyme, sequence (P03952 391-638): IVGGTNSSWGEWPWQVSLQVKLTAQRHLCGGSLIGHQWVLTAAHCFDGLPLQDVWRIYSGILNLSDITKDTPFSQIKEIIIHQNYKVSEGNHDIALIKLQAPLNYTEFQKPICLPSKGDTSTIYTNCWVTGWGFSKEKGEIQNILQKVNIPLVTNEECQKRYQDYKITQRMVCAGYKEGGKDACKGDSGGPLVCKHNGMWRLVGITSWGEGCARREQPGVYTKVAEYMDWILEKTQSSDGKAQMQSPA
human activated kallikrein enzyme, sequence (P03952 20-390 partner): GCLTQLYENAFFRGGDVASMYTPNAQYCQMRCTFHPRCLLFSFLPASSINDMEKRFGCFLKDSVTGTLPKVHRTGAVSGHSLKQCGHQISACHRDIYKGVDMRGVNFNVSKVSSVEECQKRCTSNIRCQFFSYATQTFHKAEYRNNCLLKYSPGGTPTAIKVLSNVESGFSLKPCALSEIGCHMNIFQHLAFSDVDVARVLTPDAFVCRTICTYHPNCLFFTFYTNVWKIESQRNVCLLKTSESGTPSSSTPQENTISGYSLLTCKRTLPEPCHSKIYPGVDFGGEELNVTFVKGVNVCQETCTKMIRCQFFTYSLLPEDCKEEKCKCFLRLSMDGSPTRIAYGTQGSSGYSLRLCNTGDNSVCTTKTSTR
Assay type: biochemical
Summary of the method: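 Human activated kallikrein (500 pM format) was preincubated 30 min at RT with inhibitor in 20 mM Tris pH 7.5, 150 mM NaCl, 1 mM EDTA, 0.1% PEG-400, 0.1% Triton X-100. Reactions then ran 10 min at RT with 300 uM Pro-Phe-Arg-AMC. Fluorescence was read at ex 380/em 460 nm.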

EC50 | Structure (SMILES)
1 to 10 nM | COc1ccc(-c2ccnnc2)c(CNC(=O)c2cn(Cc3cn4cc(C5CC5)ccc4n3)nn2)c1F [Example I-86, 1-((6-cyclopropylimidazo[1,2-a]pyridin-2-yl)methyl)-N-(2-fluoro-3-methoxy-6-(pyridazin-4-yl)benzyl)-1H-1,2,3-triazole-4-carboxamide]
≤ 1 nM | O=C(NCc1c(-n2cnnn2)ccc(Br)c1F)c1cn(Cc2cn3cc(C4CC4)ccc3n2)nn1 [Example I-90, N-(3-bromo-2-fluoro-6-(1H-tetrazol-1-yl)benzyl)-1-((6-cyclopropylimidazo[1,2-a]pyridin-2-yl)methyl)-1H-1,2,3-triazole-4-carboxamide]
≤ 1 nM | COc1ccc(-n2cnnn2)c(CNC(=O)c2cn(Cc3cn4cc(C5CC5)cc(C5(F)COC5)c4n3)nn2)c1F [Example I-91, 1-((6-cyclopropyl-8-(3-fluorooxetan-3-yl)imidazo[1,2-a]pyridin-2-yl)methyl)-N-(2-fluoro-3-methoxy-6-(1H-tetrazol-1-yl)benzyl)-1H-1,2,3-triazole-4-carboxamide]
≤ 1 nM | COc1ccc(-n2cnnn2)c(CNC(=O)c2cn(Cc3cn4cc(C5CC5)cc(CCC(=O)O)c4n3)nn2)c1F [Example I-92, 3-(6-cyclopropyl-2-((4-((2-fluoro-3-methoxy-6-(1H-tetrazol-1-yl)benzyl)carbamoyl)-1H-1,2,3-triazol-1-yl)methyl)imidazo[1,2-a]pyridin-8-yl)propanoic acid]
1 to 10 nM | COc1ccc(-n2cnnc2)c(CNC(=O)c2cn(Cc3cn4cc(C5CC5)ccc4n3)nn2)c1F [Example I-96, 1-((6-cyclopropylimidazo[1,2-a]pyridin-2-yl)methyl)-N-(2-fluoro-3-methoxy-6-(4H-1,2,4-triazol-4-yl)benzyl)-1H-1,2,3-triazole-4-carboxamide]
100 to 2000 nM | O=C(NCc1c(-n2cnnn2)ccc(OC(F)(F)F)c1F)c1cn(Cc2cn3cc(C4CC4)ccc3n2)nn1 [Example I-98, 1-((6-cyclopropylimidazo[1,2-a]pyridin-2-yl)methyl)-N-(2-fluoro-6-(1H-tetrazol-1-yl)-3-(trifluoromethoxy)benzyl)-1H-1,2,3-triazole-4-carboxamide]
100 to 2000 nM | COc1cccc(CNC(=O)c2cn(Cc3cn4cc(C5CC5)ccc4n3)nn2)c1F [Example I-100, 1-((6-cyclopropylimidazo[1,2-a]pyridin-2-yl)methyl)-N-(2-fluoro-3-methoxybenzyl)-1H-1,2,3-triazole-4-carboxamide]
1 to 10 nM | COc1ccc(-c2ccncc2)c(CNC(=O)c2cn(Cc3cn4cc(C5CC5)ccc4n3)nn2)c1F [Example I-101, 1-((6-cyclopropylimidazo[1,2-a]pyridin-2-yl)methyl)-N-(2-fluoro-3-methoxy-6-(pyridin-4-yl)benzyl)-1H-1,2,3-triazole-4-carboxamide]
≤ 1 nM | Cc1cc(C(=N)N)cc(C)c1CNC(=O)c1cnn(Cc2cn3cc(C4CC4)ccc3n2)c1 [Example I-103, N-(4-carbamimidoyl-2,6-dimethylbenzyl)-1-((6-cyclopropylimidazo[1,2-a]pyridin-2-yl)methyl)-1H-pyrazole-4-carboxamide]
≤ 1 nM | COc1ccc(-n2cnnn2)c(CNC(=O)c2cn(Cc3cn4cc(C5CC5)ccc4n3)nn2)c1F [Example I-105, 1-((6-cyclopropylimidazo[1,2-a]pyridin-2-yl)methyl)-N-(2-fluoro-3-methoxy-6-(1H-tetrazol-1-yl)benzyl)-1H-1,2,3-triazole-4-carboxamide]
≤ 1 nM | COc1ccc(C#N)c(CNC(=O)c2cn(Cc3cn4cc(C5CC5)cc(CCC(=O)O)c4n3)nn2)c1F [Example I-107, 3-(2-((4-((6-cyano-2-fluor-3-methoxybenzyl)carbamoyl)-1H-1,2,3-triazol-1-yl)methyl)-6-cyclopropylimidazo[1,2-a]pyridin-8-yl)propanoic Acid]
1 to 10 nM | CCOC(=O)CCc1cc(C2CC2)cn2cc(Cn3cc(C(=O)NCc4c(C#N)ccc(OC)c4F)nn3)nc12 [Example I-108, ethyl 3-(2-((4-((6-cyano-2-fluoro-3-methoxybenzyl)carbamoyl)-1H-1,2,3-triazol-1-yl)methyl)-6-cyclopropylimidazo[1,2-a]pyridin-8-yl)propanoate]
≤ 1 nM | O=C(O)CCc1cc(C2CC2)cn2cc(Cn3cc(C(=O)NCc4c(-n5cnnn5)ccc(Cl)c4F)nn3)nc12 [Example I-109, 3-(2-((4-((3-choro-2-fluoro-6-(1H-tetrazol-1-yl)benzyl)carbamoyl)-1H-1,2,3-triazol-1-yl)methyl)-6-cyclopropylimidazo[1,2-a]pyridin-8-yl)propanoic Acid]
1 to 10 nM | N#CNc1ccc(Cl)c(F)c1CNC(=O)c1cn(Cc2cn3cc(C4CC4)cc(CCC(=O)O)c3n2)nn1 [Example I-110, 3-(2-((4-((3-chloro-6-cyanamido-2-fluorobenzyl)carbamoyl)-1H-1,2,3-triazol-1-yl)methyl)-6-cyclopropylimidazo[1,2-a]pyridin-8-yl)propanoic Acid]
≤ 1 nM | Cc1cc(C(=N)N)cc(C)c1CNC(=O)c1cn(Cc2cn3cc(C4CC4)cc(C(=O)O)c3n2)nn1 [Example I-111, 2-((4-((4-carbamimidoyl-2,6-dimethylbenzyl)carbamoyl)-1H-1,2,3-triazol-1-yl)methyl)-6-cyclopropylimidazo[1,2-a]pyridine-8-carboxylic Acid]

Continued, compound first:

Structure (SMILES) | EC50
CCOC(=O)C(C)(C)Cc1cc(C2CC2)cn2cc(Cn3cc(C(=O)NCc4c(-n5cnnn5)ccc(OC)c4F)nn3)nc12 [Example I-85, ethyl 3-(6-cyclopropyl-2-((4-((2-fluoro-3-methoxy-6-(1H-tetrazol-1-yl)benzyl)carbamoyl)-1H-1,2,3-triazol-1-yl)methyl)imidazo[1,2-a]pyridin-8-yl)-2,2-dimethylpropanoate] | ≤ 1 nM
COC(=O)c1ccc(-c2ccc(OC)c(F)c2CNC(=O)c2cn(Cc3cn4cc(C5CC5)ccc4n3)nn2)cc1 [Example I-87, Methyl 2′-((1-((6-cyclopropylimidazo[1,2-a]pyridin-2-yl)methyl)-1H-1,2,3-triazole-4-carboxamido)methyl)-3′-fluoro-4′-methoxy-[1,1′-biphenyl]-4-carboxylate] | 10 to 100 nM
COc1ccc(-c2ccc(C(=O)O)cc2)c(CNC(=O)c2cn(Cc3cn4cc(C5CC5)ccc4n3)nn2)c1F [Example I-88, 2′-((1-((6-cyclopropylimidazo[1,2-a]pyridin-2-yl)methyl)-1H-1,2,3-triazole-4-carboxamido)methyl)-3′-fluoro-4′-methoxy-[1,1′-biphenyl]-4-carboxylic acid] | 1 to 10 nM
CCOC(=O)CCc1cc(C2CC2)cn2cc(Cn3cc(C(=O)NCc4c(-n5cnnn5)ccc(OC)c4F)nn3)nc12 [Example I-89, ethyl 3-(6-cyclopropyl-2-((4-((2-fluoro-3-methoxy-6-(1H-tetrazol-1-yl)benzyl)carbamoyl)-1H-1,2,3-triazol-1-yl)methyl)imidazo[1,2-a]pyridin-8-yl)propanoate] | ≤ 1 nM
COc1ccc(-n2cnnn2)c(CNC(=O)c2cn(Cc3cn4cc(C5CC5)cc(C(F)(F)F)c4n3)nn2)c1F [Example I-93, 1-((6-cyclopropyl-8-(trifluoromethyl)imidazo[1,2-a]pyridin-2-yl)methyl)-N-(2-fluoro-3-methoxy-6-(1H-tetrazol-1-yl)benzyl)-1H-1,2,3-triazole-4-carboxamide] | ≤ 1 nM
COc1ccc(-n2cnnn2)c(CNC(=O)c2nnc(Cc3cn4cc(C5CC5)ccc4n3)o2)c1F [Example I-94, 5-((6-cyclopropylimidazo[1,2-a]pyridin-2-yl)methyl)-N-(2-fluoro-3-methoxy-6-(1H-tetrazol-1-yl)benzyl)-1,3,4-oxadiazole-2-carboxamide] | ≤ 1 nM
COc1ccc(-n2cccn2)c(CNC(=O)c2cn(Cc3cn4cc(C5CC5)ccc4n3)nn2)c1F [Example I-95, 1-((6-cyclopropylimidazo[1,2-a]pyridin-2-yl)methyl)-N-(2-fluoro-3-methoxy-6-(1H-pyrazol-1-yl)benzyl)-1H-1,2,3-triazole-4-carboxamide] | 1 to 10 nM
COc1ccc(-c2nnco2)c(CNC(=O)c2cn(Cc3cn4cc(C5CC5)ccc4n3)nn2)c1F [Example I-97, 1-((6-cyclopropylimidazo[1,2-a]pyridin-2-yl)methyl)-N-(2-fluoro-3-methoxy-6-(1,3,4-oxadiazol-2-yl)benzyl)-1H-1,2,3-triazole-4-carboxamide] | 10 to 100 nM
COc1ccc(-n2cnnn2)c(CNC(=O)c2cn(Cc3cn4cc(C5CC5)cc(F)c4n3)nn2)c1F [Example I-99, 1-((6-cyclopropyl-8-fluoroimidazo[1,2-a]pyridin-2-yl)methyl)-N-(2-fluoro-3-methoxy-6-(1H-tetrazol-1-yl)benzyl)-1H-1,2,3-triazole-4-carboxamide] | ≤ 1 nM
COc1ccc(Br)c(CNC(=O)c2cn(Cc3cn4cc(C5CC5)ccc4n3)nn2)c1F [Example I-102, N-(6-bromo-2-fluoro-3-methoxybenzyl)-1-((6-cyclopropylimidazo[1,2-a]pyridin-2-yl)methyl)-1H-1,2,3-triazole-4-carboxamide] | 10 to 100 nM
COc1ccc(-n2ccnc2)c(CNC(=O)c2cn(Cc3cn4cc(C5CC5)ccc4n3)nn2)c1F [Example I-104, 1-((6-cyclopropylimidazo[1,2-a]pyridin-2-yl)methyl)-N-(2-fluoro-6-(1H-imidazol-1-yl)-3-methoxybenzyl)-1H-1,2,3-triazole-4-carboxamide] | 1 to 10 nM
O=C(NCc1c(-n2cnnn2)ccc(Cl)c1F)c1cn(Cc2cn3cc(C4CC4)ccc3n2)nn1 [Example I-106, N-(3-chloro-2-fluoro-6-(1H-tetrazol-1-yl)benzyl)-1-((6-cyclopropylimidazo[1,2-a]pyridin-2-yl)methyl)-1H-1,2,3-triazole-4-carboxamide] | ≤ 1 nM
